Source: BindingDB's records for doi:10.1016/j.bmcl.2005.11.067 (Merck Sharp and Dohme Research Laboratories, 2006)

The molecules below were run against T1, Alpha-1A/Alpha-1B/Alpha-1D adrenergic receptor (Rattus norvegicus, UniProt P15823+P23944+P43140) (assay: Displacement of [3H]prazosin from alpha-1 adrenergic receptor in rat cortex).
T1 sequence (P15823 whole entry): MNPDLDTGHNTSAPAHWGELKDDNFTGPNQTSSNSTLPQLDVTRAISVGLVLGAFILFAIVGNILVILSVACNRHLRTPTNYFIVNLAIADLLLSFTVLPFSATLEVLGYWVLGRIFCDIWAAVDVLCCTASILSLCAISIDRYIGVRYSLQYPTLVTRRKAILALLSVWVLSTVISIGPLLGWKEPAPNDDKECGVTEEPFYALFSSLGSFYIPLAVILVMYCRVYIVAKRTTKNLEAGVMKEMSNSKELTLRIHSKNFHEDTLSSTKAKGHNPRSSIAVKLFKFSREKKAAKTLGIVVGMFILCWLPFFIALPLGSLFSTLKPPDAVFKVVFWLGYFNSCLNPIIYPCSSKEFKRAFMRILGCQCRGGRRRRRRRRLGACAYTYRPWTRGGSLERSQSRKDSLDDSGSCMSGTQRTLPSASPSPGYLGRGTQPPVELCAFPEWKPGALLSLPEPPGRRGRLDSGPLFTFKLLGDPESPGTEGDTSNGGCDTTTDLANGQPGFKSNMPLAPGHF
T1 sequence (P43140 whole entry): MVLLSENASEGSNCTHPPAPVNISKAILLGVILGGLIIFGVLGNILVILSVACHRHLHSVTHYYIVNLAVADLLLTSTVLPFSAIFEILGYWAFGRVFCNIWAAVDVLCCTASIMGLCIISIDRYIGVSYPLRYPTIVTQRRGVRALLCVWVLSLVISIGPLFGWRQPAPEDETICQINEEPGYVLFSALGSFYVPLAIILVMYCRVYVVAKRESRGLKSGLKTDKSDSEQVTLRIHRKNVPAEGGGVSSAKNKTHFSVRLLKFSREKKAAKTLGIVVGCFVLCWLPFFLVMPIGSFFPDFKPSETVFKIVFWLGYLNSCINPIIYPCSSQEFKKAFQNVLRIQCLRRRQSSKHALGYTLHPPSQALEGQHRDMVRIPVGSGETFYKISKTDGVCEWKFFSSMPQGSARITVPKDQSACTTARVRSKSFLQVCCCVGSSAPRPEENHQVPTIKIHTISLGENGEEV
T1 sequence (P23944 whole entry): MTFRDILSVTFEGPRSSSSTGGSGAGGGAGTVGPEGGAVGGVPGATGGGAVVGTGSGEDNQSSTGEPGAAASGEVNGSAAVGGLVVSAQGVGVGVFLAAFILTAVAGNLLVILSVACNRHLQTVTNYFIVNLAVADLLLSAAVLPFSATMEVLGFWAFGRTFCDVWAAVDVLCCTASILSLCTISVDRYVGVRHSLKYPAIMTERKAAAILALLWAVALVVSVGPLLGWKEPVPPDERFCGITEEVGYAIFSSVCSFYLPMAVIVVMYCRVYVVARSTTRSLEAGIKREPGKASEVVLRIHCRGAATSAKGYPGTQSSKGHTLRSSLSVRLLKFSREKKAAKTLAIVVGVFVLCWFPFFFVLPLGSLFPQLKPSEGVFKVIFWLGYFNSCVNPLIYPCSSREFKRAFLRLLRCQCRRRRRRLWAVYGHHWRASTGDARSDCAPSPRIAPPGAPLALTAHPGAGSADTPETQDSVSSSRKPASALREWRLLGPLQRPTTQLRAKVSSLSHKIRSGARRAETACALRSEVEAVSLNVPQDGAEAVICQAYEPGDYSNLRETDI
Molecule `CC(C)(CCCN1CCCC(c2cnco2)C1)S(=O)(=O)c1ccccc1` (centres undefined) has a Ki greater than 4 µM. `CCOC(=O)[C@@H]1CCCN(CCCC(C)(C)S(=O)(=O)c2ccccc2)C1` showed a Ki greater than 4 µM. With `CC(C)(CCCN1CCCC(c2ccccc2)C1)S(=O)(=O)c1ccccc1` (centres undefined) the Ki was 0.54 µM. Molecule `CC(C)(CCCN1CCCC(C(F)(F)F)C1)S(=O)(=O)c1ccccc1` (centres undefined) has a Ki greater than 4 µM.
